Assay results taken from patent US9156831B2, “Chemical compounds” (ASTRAZENECA AB, priority 2013, dated 2015).

How the values were obtained:
Experiment in all cases: Cell proliferation assay (MTS)
H596 = type: cell-based, human
Method: (§1) The sensitivity of a panel of human cancer cell lines to the effects of compounds was determined in a standard proliferation assay.
(§2) Cells were plated in 96 well plates at densities of 1000-6000 cells per well in RPMI media containing 10% FBS. After incubation at 37° C. for 16 hours, various concentrations of compound were added to the assay plates. After incubation for an additional 72 h, the viable cells were determined by the addition of MTS reagent (Promega #3582) to each well for 2 h. MTS is a tetrazolium salt that is bioreduced by metabolically active cells in the presence of an electron coupling reagent to formazan. The formazan product was then quantitated by absorbance at 490 nm, as an indicator of the relative number of live cells. In order to determine the GI50 (concentration at which growth of cells was inhibited by 50%) the relative number of cells present at the time of drug addition was determined by comparison with the MTS readout before the drug was added, and this value was subtracted from the 72 hr value of untreated cells as a measure of cell growth during the assay.

HRA19 = type: cell-based, human
Method: (§3) The sensitivity of a panel of human cancer cell lines to the effects of compounds was determined in a standard proliferation assay. Cell lines were sourced through the AstraZeneca Cell Bank.
as §2

IM95M = type: cell-based, human
Method: as §3, §2

LK2 = type: cell-based, human
Method: as §3, §2

L363 = type: cell-based, human
Method: as §1, §2

BFTC905 = type: cell-based, human
Method: as §1
(§4) Cells were plated in 96 well plates at densities of 1000-6000 cells per well in RPMI media containing 10% FBS. After incubation at 37° C. for 16 hours, various concentrations of compound were added to the assay plates. After incubation for an additional 72 h, the viable cells were determined by the addition of MTS reagent (Promega #3582) to each well for 2 h. […] The formazan product was then quantitated by absorbance at 490 nm, as an indicator of the relative number of live cells. In order to determine the GI50 (concentration at which growth of cells was inhibited by 50%) the relative number of cells present at the time of drug addition was determined by comparison with the MTS readout before the drug was added, and this value was subtracted from the 72 hr value of untreated cells as a measure of cell growth during the assay.

RT11284 = type: cell-based, human
Method: as §1, §2

AGS = type: cell-based, human
Method: as §1, §2

MKN1 = type: cell-based, human
Method: as §1, §2

SNU368 = type: cell-based, human
Method: as §1, §2

PANC89 = type: cell-based, human
Method: as §1, §2

SNU484 = type: cell-based, human
Method: as §1, §2

H2085 = type: cell-based, human
Method: as §1, §2

AZ521 = type: cell-based, human
Method: as §1, §2

PNT1A = type: cell-based, human
Method: as §1, §2

HCT8 = type: cell-based, human
Method: as §3, §2

SW403 = type: cell-based, human
Method: as §1, §2

HCC95 = type: cell-based, human
Method: as §3, §2

ZR751 = type: cell-based, human
Method: as §3, §2

OE19 = type: cell-based, human
Method: as §1, §4

SNU449 = type: cell-based, human
Method: as §1, §4

HS746T = type: cell-based, human
Method: as §1, §2

HEP3B = type: cell-based, human
Method: as §1, §2

DU145 = type: cell-based, human
Method: as §1, §4

EBC1 = type: cell-based, human
Method: as §1, §4

HUPT3 = type: cell-based, human
Method: as §3, §2

J82 = type: cell-based, human
Method: as §1, §4

SNU16 = type: cell-based, human
Method: as §1, §2

GTL16 = type: cell-based, human
Method: as §1, §4

LOVO = type: cell-based, human
Method: as §1, §2

SKMES1 = type: cell-based, human
Method: as §1, §2

MIAPACA2 = type: cell-based, human
Method: as §3, §2

H1437 = type: cell-based, human
Method: as §1, §2

HLF = type: cell-based, human
Method: as §3, §2

HX147 = type: cell-based, human
Method: as §3, §2

MDAMB436 = type: cell-based, human
Method: as §1, §2

MEC1 = type: cell-based, human
Method: as §1, §2

OCIAML2 = type: cell-based, human
Method: as §1, §2

RAMOS = type: cell-based, human
Method: as §1, §2

RERFLCAI = type: cell-based, human
Method: as §1, §2

COLO320DM = tested on: COLO320DM
Method: as §3, §2

HUH1 = tested on: HUH1
Method: as §1, §4

[1] = Homo sapiens, Stomach, PIK3CA MUT
[2] = Homo sapiens, Blood/lymph, PIK3CA WT

## CCn1nc(C2CCN(C(=O)CCO)CC2)nc1-c1cnc(N)c(-c2nnc(C(C)(C)C)o2)n1 [Example 3, 1-(4-(5-(5-amino-6-(5-tert-butyl-1,3,4-oxadiazol-2-yl)pyrazin-2-yl)-1-ethyl-1H-1,2,4-triazol-3-yl)piperidin-1-yl)-3-hydroxypropan-1-one]
H596
  Category: Sensitive (sensitive (GI50<=1.0 μM))
H596; Homo sapiens, NCI-H596, Lung, PIK3CA MUT
  GI50: 0.302 µM
HRA19
  Category: Sensitive (sensitive (GI50<=1.0 μM))
HRA19; Homo sapiens, Rectum, PIK3CA MUT
  GI50: 0.393 µM
IM95M
  Category: Sensitive (sensitive (GI50<=1.0 μM))
IM95M; [1]
  GI50: 0.436 µM
LK2
  Category: Sensitive (sensitive (GI50<=1.0 μM))
LK2; Homo sapiens, LK-2, Lung, PIK3CA WT
  GI50: 0.588 µM
L363
  Category: Sensitive (sensitive (GI50<=1.0 μM))
L363; Homo sapiens, L-363, Blood/lymph, PIK3CA MUT
  GI50: 0.681 µM
BFTC905
  Category: Sensitive (sensitive (GI50<=1.0 μM))
BFTC905; Homo sapiens, BFTC-905, Bladder, PIK3CA WT
  GI50: 0.966 µM
RT11284
  Category: Resistant (resistant (GI50>1.0 μM))
RT11284; Homo sapiens, RT112/84, Bladder, PIK3CA WT
  GI50: 1.17 µM
AGS
  Category: Resistant (resistant (GI50>1.0 μM))
AGS; [1]
  GI50: 1.41 µM
MKN1
  Category: Resistant (resistant (GI50>1.0 μM))
MKN1; Homo sapiens, MKN-1, Stomach, PIK3CA MUT
  GI50: 1.58 µM
SNU368
  Category: Resistant (resistant (GI50>1.0 μM))
SNU368; Homo sapiens, Liver, PIK3CA WT
  GI50: 1.6 µM
PANC89
  Category: Resistant (resistant (GI50>1.0 μM))
PANC89; Homo sapiens, Pancreas, PIK3CA WT
  GI50: 1.62 µM
SNU484
  Category: Resistant (resistant (GI50>1.0 μM))
SNU484; Homo sapiens, SNU-484, Stomach, PIK3CA WT
  GI50: 1.79 µM
H2085
  Category: Resistant (resistant (GI50>1.0 μM))
H2085; Homo sapiens, Lung, PIK3CA WT
  GI50: 1.83 µM
AZ521
  Category: Resistant (resistant (GI50>1.0 μM))
AZ521; Homo sapiens, AZ-521, Duodenum, PIK3CA WT
  GI50: 2.06 µM
PNT1A
  Category: Resistant (resistant (GI50>1.0 μM))
PNT1A; Homo sapiens, Prostate, PIK3CA WT
  GI50: 2.17 µM
HCT8
  Category: Resistant (resistant (GI50>1.0 μM))
HCT8; Homo sapiens, HCT-8, Colon, PIK3CA MUT
  GI50: 2.51 µM
SW403
  Category: Resistant (resistant (GI50>1.0 μM))
SW403; Homo sapiens, SW-403, Colon, PIK3CA MUT
  GI50: 2.61 µM
HCC95
  Category: Resistant (resistant (GI50>1.0 μM))
HCC95; Homo sapiens, Lung, PIK3CA WT
  GI50: 3.11 µM
ZR751
  Category: Resistant (resistant (GI50>1.0 μM))
ZR751; Homo sapiens, ZR-75-1, Breast, PIK3CA WT
  GI50: 3.56 µM
OE19
  Category: Resistant (resistant (GI50>1.0 μM))
OE19; Homo sapiens, Esophagus, PIK3CA WT
  GI50: 5.13 µM
SNU449
  Category: Resistant (resistant (GI50>1.0 μM))
SNU449; Homo sapiens, SNU-449, Liver, PIK3CA WT
  GI50: 5.41 µM
HS746T
  Category: Resistant (resistant (GI50>1.0 μM))
HS746T; Homo sapiens, Stomach, PIK3CA WT
  GI50: 5.98 µM
HEP3B
  Category: Resistant (resistant (GI50>1.0 μM))
HEP3B; Homo sapiens, Liver, PIK3CA WT
  GI50: 6.69 µM
DU145
  Category: Resistant (resistant (GI50>1.0 μM))
DU145; Homo sapiens, DU-145, Prostate, PIK3CA WT
  GI50: 8.24 µM
EBC1
  Category: Resistant (resistant (GI50>1.0 μM))
EBC1; Homo sapiens, EBC-1, Lung, PIK3CA WT
  GI50: 8.57 µM
HUPT3
  Category: Resistant (resistant (GI50>1.0 μM))
HUPT3; Homo sapiens, HuP-T3, Pancreas, PIK3CA WT
  GI50: 13.4 µM
J82
  Category: Resistant (resistant (GI50>1.0 μM))
J82; Homo sapiens, Bladder, PIK3CA MUT
  GI50: 13.4 µM
SNU16
  Category: Resistant (resistant (GI50>1.0 μM))
SNU16; Homo sapiens, SNU-16, Stomach, PIK3CA WT
  GI50: 16.8 µM
GTL16
  Category: Resistant (resistant (GI50>1.0 μM))
GTL16; Homo sapiens, GTL 16, Stomach, PIK3CA WT
  GI50: 17.4 µM
LOVO
  Category: Resistant (resistant (GI50>1.0 μM))
LOVO; Homo sapiens, Colon, PIK3CA WT
  GI50: 18.6 µM
SKMES1
  Category: Resistant (resistant (GI50>1.0 μM))
SKMES1; Homo sapiens, SK-MES-1, Lung, PIK3CA WT
  GI50: 19.5 µM
MIAPACA2
  Category: Resistant (resistant (GI50>1.0 μM))
MIAPACA2; Homo sapiens, MIA PaCa-2, Pancreas, PIK3CA WT
  GI50: 24.2 µM
H1437
  Category: Resistant (resistant (GI50>1.0 μM))
H1437; Homo sapiens, NCI-H1437, Lung, PIK3CA WT
  GI50: 30 µM
HLF
  Category: Resistant (resistant (GI50>1.0 μM))
HLF; Homo sapiens, Liver, PIK3CA WT
  GI50: 30 µM
HX147
  Category: Resistant (resistant (GI50>1.0 μM))
HX147; Homo sapiens, Lung, PIK3CA WT
  GI50: 30 µM
MDAMB436
  Category: Resistant (resistant (GI50>1.0 μM))
MDAMB436; Homo sapiens, MDA-MB-436, Breast, PIK3CA WT
  GI50: 30 µM
MEC1
  Category: Resistant (resistant (GI50>1.0 μM))
MEC1; [2]
  GI50: 30 µM
OCIAML2
  Category: Resistant (resistant (GI50>1.0 μM))
OCIAML2; Homo sapiens, OCI-AML2, Blood/lymph, PIK3CA WT
  GI50: 30 µM
RAMOS
  Category: Resistant (resistant (GI50>1.0 μM))
RAMOS; [2]
  GI50: 30 µM
RERFLCAI; Homo sapiens, Lung, PIK3CA WT
  GI50: 30 µM
RERFLCAI; RERFLCAI
  Category: Resistant (resistant (GI50>1.0 μM))
COLO320DM; COLO320DM
  Category: Resistant (resistant (GI50>1.0 μM))
COLO320DM; Homo sapiens, COLO 320DM
  GI50: 2.51 µM
HUH1; HUH1
  Category: Resistant (resistant (GI50>1.0 μM))
HUH1; Homo sapiens, HuH-1
  GI50: 22.3 µM
